Values of other authors as cited in patent publication US20070092568A1 (priority 2005, published 2007).
Structures can show the parent of a compound that is named as a salt.

- Solubility in water: sparingly soluble in water
Structure (SMILES): COc1ccc2c3c1O[C@H]1C[C@@H](O)C=C[C@@]31CCN(C)C2 [Galantamine hydrobromide, (4aS,6R,8aS)-4a,5,9,10,11,12-hexahydro-3-methoxy-11-methyl-6H-benzofuro[3a,3,2-ef][2]benzazepin-6-ol]
